Patent US20220296563A1, “ACYLATED ACTIVE AGENTS AND METHODS OF THEIR USE FOR THE TREATMENT OF METABOLIC DISORDERS AND NONALCOHOLIC FATTY LIVER DISEASE” (Flagship Pioneering Innovations V, Inc., priority 2019, published 2022)

How the values were obtained:
[1] = test system: Mouse myocyte; assay: Mouse myocyte lipolysis assay; type: cell-based; conditions: 100 μM, differentiated myocytes
Procedure: Cells were obtained from ATCC and cultured in Dulbecco's Modified Eagle's medium (DMEM) containing 20% fetal bovine serum and 1% penicillin/streptomycin at 37° C. in an incubator with 5% CO2 Once the cells became confluent, they were seeded into a tissue culture treated 96 well plate. The next day, the medium containing DMEM with 2% equine serum was used to start differentiation. Table 2 lists the tested compounds including those that reduced the release of glycerol (+, ++, or +++). The lipolytic rate of muscle triglycerides is associated with metabolic dysfunction including insulin resistance and liver steatosis. Compounds that lower lipolysis of adipocytes may improve metabolic function including improving insulin sensitivity and reducing liver steatosis, thus improving outcomes in patients with diabetes mellitus (e.g., prediabetes or type II diabetes) obesity, and hyperlipidemia.

[2] = test system: C57BL/6 mice; assay: In vivo evaluation in C57BL/6 mice fed a high-fat diet; conditions: vs. HFD control group, up to day 84
Procedure: Animals were allowed free access to food and drinking water for the entire study. Animals were weighed on a regular basis, and food and drinking water consumption monitored. Plasma and stool samples were collected at the beginning of the study and 42 days into the study. Additional blood was drawn from fasted mice 58 days into the study. Insulin tolerance tests were performed 72 or 73 days into the study. Following an approximate 4 h fast, 0.5 Units/kg insulin was administered intraperitoneally. Blood was collected pre-insulin challenge (t=0) and at t=15, 30, 60, 90, and 120 min following insulin challenge. Oral glucose tolerance tests were performed 79 or 80 days into the study. Following an approximate 4 h fast, 2 g/kg glucose was administered by oral gavage. Blood was collected pre-insulin challenge (t=0) and at t=15, 30, 60, 90, and 120 min following glucose challenge. At the end of the study, body weight, food consumption, blood glucose, serum ALT levels, serum AST levels, serum cholesterol (total cholesterol. HDL, and LDL levels), serum triglycerides levels, liver triglyceride levels, liver cholesterol levels, liver weight, subcutaneous were measured in all mice.

| Compound | Free glycerol % DMSO [1] | body weight [2] |
| --- | --- | --- |
| O=C(O)c1cc(O)ccc1O [Gentisate] | +++ (50%<: +++) | – |
| CC(=O)O[C@@H]1OC[C@@H](OC(C)=O)[C@H](OC(C)=O)[C@H]1OC(C)=O [compound 4] | – | induce weight loss |
